Earlier results as cited in publication PMC4381553, “Acute and Chronic Toxicity, Cytochrome P450 Enzyme Inhibition, and hERG Channel Blockade Studies with a Polyherbal, Ayurvedic Formulation for Inflammation” (BioMed Research International, 2015).
Where two headings read alike, the source gives them in different places.

Tests used:
[1] = system: CYP3a; conditions: only at very high dose (200 μg/mL), rat liver microsome
[2] = system: CYP3a; conditions: only at very high dose (200 μg/mL), human liver microsome

CC1=C(CO)C(=O)O[C@@H]([C@@H](C)[C@H]2CC[C@H]3[C@@H]4CC=C5C[C@@H](O[C@@H]6O[C@H](CO[C@@H]7O[C@H](CO)[C@@H](O)[C@H](O)[C@H]7O)[C@@H](O)[C@H](O)[C@H]6O)C[C@H](O)[C@]5(C)[C@H]4CC[C@]23C)C1 [Withanoside IV]
inhibitory activity of CYP3a [1]: some inhibitory activity | inhibitory activity of CYP3a [2]: some inhibitory activity
